Format in all cases: cell-based
Assay [1] deals with Colletotrichum orbiculare. The following applies: 25° C., 1 day or 2 days.
The subject of another assay is Botrytis cinerea. The following applies: 25° C., 1 day or 2 days.
Assay [2] relates to Colletotrichum destructivum. The following applies: 25° C., 1 day or 2 days.
In another assay the test system is Fusarium oxysporum.
In the next assay the test system is Pyricularia oryzae. Conditions: 25° C., 1 day or 2 days.

Where two headings read alike, the source gives them in different places.

For “PAFSERTR (listed as Solanum lycopersicum) [TsORF18-2-8aa-5]”, the “Plate antimicrobial activity test Collectotrichum orbiculare (level)” value in assay [1] (peptide 1 μM), in assay [1] (peptide 10 μM) and in assay [1] (peptide 100 μM) was 0 in each case. For the same substance, the “Plate antimicrobial activity test Botrytis cinerea (level)” value with Botrytis cinerea (peptide 1 μM), in the assay with Botrytis cinerea (peptide 10 μM) and in the assay with Botrytis cinerea (peptide 100 μM) was 0 throughout. The “Plate antimicrobial activity test Colletotrichum destructivum (level)” value in assay [2] (peptide 1 μM), in assay [2] (peptide 10 μM) and in assay [2] (peptide 100 μM) was 0 each time. For the same substance, the “Plate antimicrobial activity test Fusarium oxysporum (level)” value in the assay with Fusarium oxysporum came out at 0. For the same substance, the “Plate antimicrobial activity test Pyricularia oryzae (level)” value with Pyricularia oryzae (peptide 1 μM), in the assay on Pyricularia oryzae (peptide 10 μM) and with Pyricularia oryzae (peptide 100 μM) was 0 in each case.

For “SERTRKFW (listed as Solanum lycopersicum) [TsORF18-2-8aa-8]”, the “Plate antimicrobial activity test Collectotrichum orbiculare (level)” value in assay [1] (peptide 1 μM), in assay [1] (peptide 10 μM) and in assay [1] (peptide 100 μM) was 0 each time. Moreover, the “Plate antimicrobial activity test Botrytis cinerea (level)” value with Botrytis cinerea (peptide 1 μM), in the assay with Botrytis cinerea (peptide 10 μM) and with Botrytis cinerea (peptide 100 μM) was 0 each time. For the same substance, the “Plate antimicrobial activity test Colletotrichum destructivum (level)” value in assay [2] (peptide 1 μM), in assay [2] (peptide 10 μM) and in assay [2] (peptide 100 μM) was 0 in each case. In the assay with Fusarium oxysporum, the “Plate antimicrobial activity test Fusarium oxysporum (level)” value turned out to be 0. Further, the “Plate antimicrobial activity test Pyricularia oryzae (level)” value in the assay on Pyricularia oryzae (peptide 1 μM), in the assay on Pyricularia oryzae (peptide 10 μM) and in the assay on Pyricularia oryzae (peptide 100 μM) was 0 throughout.

ILLSLEIFERKFSRSVWYYGFP [TsORF18-1]: the “Plate antimicrobial activity test Collectotrichum orbiculare (level)” value in assay [1] (peptide 1 μM), in assay [1] (peptide 10 μM) and in assay [1] (peptide 100 μM) was 0 in each case. Besides, the “Plate antimicrobial activity test Botrytis cinerea (level)” value in the assay with Botrytis cinerea (peptide 1 μM), with Botrytis cinerea (peptide 10 μM) and with Botrytis cinerea (peptide 100 μM) was 0 throughout. Further, the “Plate antimicrobial activity test Colletotrichum destructivum (level)” value in assay [2] (peptide 1 μM), in assay [2] (peptide 10 μM) and in assay [2] (peptide 100 μM) was 0 in each case. For the same substance, in the assay on Fusarium oxysporum, the “Plate antimicrobial activity test Fusarium oxysporum (level)” value worked out at 0. The “Plate antimicrobial activity test Pyricularia oryzae (level)” value with Pyricularia oryzae (peptide 1 μM), in the assay on Pyricularia oryzae (peptide 10 μM) and with Pyricularia oryzae (peptide 100 μM) was 0 in each case.

For “YYGFPAFS (listed as Solanum lycopersicum) [TsORF18-2-8aa-1]”, the “Plate antimicrobial activity test Collectotrichum orbiculare (level)” value in assay [1] (peptide 1 μM), in assay [1] (peptide 10 μM) and in assay [1] (peptide 100 μM) was 0 in each case. Further, the “Plate antimicrobial activity test Botrytis cinerea (level)” value in the assay with Botrytis cinerea (peptide 1 μM), in the assay on Botrytis cinerea (peptide 10 μM) and in the assay with Botrytis cinerea (peptide 100 μM) was 0 in each case. The “Plate antimicrobial activity test Colletotrichum destructivum (level)” value in assay [2] (peptide 1 μM), in assay [2] (peptide 10 μM) and in assay [2] (peptide 100 μM) was 0 in each case. Besides, the “Plate antimicrobial activity test Fusarium oxysporum (level)” value in the assay on Fusarium oxysporum came out at 0. Besides, the “Plate antimicrobial activity test Pyricularia oryzae (level)” value with Pyricularia oryzae (peptide 1 μM), with Pyricularia oryzae (peptide 10 μM) and in the assay on Pyricularia oryzae (peptide 100 μM) was 0 each time.

With “RTRKF (listed as Solanum lycopersicum) [TsORF18-2-5aa-10]”, the “Plate antimicrobial activity test Collectotrichum orbiculare (level)” value in assay [1] (peptide 1 μM), in assay [1] (peptide 10 μM) and in assay [1] (peptide 100 μM) was 0 throughout. Also, the “Plate antimicrobial activity test Botrytis cinerea (level)” value in the assay with Botrytis cinerea (peptide 1 μM) is reported as 0; with Botrytis cinerea (peptide 10 μM), 0; with Botrytis cinerea (peptide 100 μM), 1. In addition, the “Plate antimicrobial activity test Colletotrichum destructivum (level)” value in assay [2] (peptide 1 μM), in assay [2] (peptide 10 μM) and in assay [2] (peptide 100 μM) was 0 each time. The “Plate antimicrobial activity test Fusarium oxysporum (level)” value in the assay with Fusarium oxysporum is 0. The “Plate antimicrobial activity test Pyricularia oryzae (level)” value in the assay with Pyricularia oryzae (peptide 1 μM), in the assay with Pyricularia oryzae (peptide 10 μM) and with Pyricularia oryzae (peptide 100 μM) was 0 throughout.

Regarding “YGFPAFSE (listed as Solanum lycopersicum) [TsORF18-2-8aa-2]”, the “Plate antimicrobial activity test Collectotrichum orbiculare (level)” value in assay [1] (peptide 1 μM), in assay [1] (peptide 10 μM) and in assay [1] (peptide 100 μM) was 0 each time. Also, the “Plate antimicrobial activity test Botrytis cinerea (level)” value in the assay with Botrytis cinerea (peptide 1 μM), in the assay with Botrytis cinerea (peptide 10 μM) and in the assay on Botrytis cinerea (peptide 100 μM) was 0 throughout. In addition, the “Plate antimicrobial activity test Colletotrichum destructivum (level)” value in assay [2] (peptide 1 μM), in assay [2] (peptide 10 μM) and in assay [2] (peptide 100 μM) was 0 each time. Also, the “Plate antimicrobial activity test Fusarium oxysporum (level)” value with Fusarium oxysporum came to 0. In addition, the “Plate antimicrobial activity test Pyricularia oryzae (level)” value in the assay on Pyricularia oryzae (peptide 1 μM), with Pyricularia oryzae (peptide 10 μM) and in the assay on Pyricularia oryzae (peptide 100 μM) was 0 throughout.

As to “FSERTRKF (listed as Solanum lycopersicum) [TsORF18-2-8aa-7]”, the “Plate antimicrobial activity test Collectotrichum orbiculare (level)” value in assay [1] (peptide 1 μM), in assay [1] (peptide 10 μM) and in assay [1] (peptide 100 μM) was 0 in each case. In addition, the “Plate antimicrobial activity test Botrytis cinerea (level)” value in the assay with Botrytis cinerea (peptide 1 μM), with Botrytis cinerea (peptide 10 μM) and with Botrytis cinerea (peptide 100 μM) was 0 each time. The “Plate antimicrobial activity test Colletotrichum destructivum (level)” value in assay [2] (peptide 1 μM), in assay [2] (peptide 10 μM) and in assay [2] (peptide 100 μM) was 0 in each case. Moreover, the “Plate antimicrobial activity test Fusarium oxysporum (level)” value in the assay on Fusarium oxysporum turned out to be 0. Also, the “Plate antimicrobial activity test Pyricularia oryzae (level)” value with Pyricularia oryzae (peptide 1 μM), in the assay on Pyricularia oryzae (peptide 10 μM) and with Pyricularia oryzae (peptide 100 μM) was 0 throughout.

Take “IWKGK (listed as Solanum lycopersicum) [TsORF18-2-5aa-17]”: the “Plate antimicrobial activity test Collectotrichum orbiculare (level)” value in assay [1] (peptide 1 μM), in assay [1] (peptide 10 μM) and in assay [1] (peptide 100 μM) was 0 in each case. For the same substance, the “Plate antimicrobial activity test Botrytis cinerea (level)” value in the assay on Botrytis cinerea (peptide 1 μM), with Botrytis cinerea (peptide 10 μM) and in the assay with Botrytis cinerea (peptide 100 μM) was 0 each time. Moreover, the “Plate antimicrobial activity test Colletotrichum destructivum (level)” value in assay [2] (peptide 1 μM), in assay [2] (peptide 10 μM) and in assay [2] (peptide 100 μM) was 0 each time. In the assay on Fusarium oxysporum, the “Plate antimicrobial activity test Fusarium oxysporum (level)” value was found to be 0. Moreover, the “Plate antimicrobial activity test Pyricularia oryzae (level)” value with Pyricularia oryzae (peptide 1 μM), in the assay on Pyricularia oryzae (peptide 10 μM) and in the assay on Pyricularia oryzae (peptide 100 μM) was 0 throughout.

Take “FPAFS (listed as Solanum lycopersicum) [TsORF18-2-5aa-4]”: the “Plate antimicrobial activity test Collectotrichum orbiculare (level)” value in assay [1] (peptide 1 μM), in assay [1] (peptide 10 μM) and in assay [1] (peptide 100 μM) was 0 throughout. For the same substance, the “Plate antimicrobial activity test Botrytis cinerea (level)” value in the assay on Botrytis cinerea (peptide 1 μM), in the assay on Botrytis cinerea (peptide 10 μM) and in the assay on Botrytis cinerea (peptide 100 μM) was 0 in each case. Also, the “Plate antimicrobial activity test Colletotrichum destructivum (level)” value in assay [2] (peptide 1 μM), in assay [2] (peptide 10 μM) and in assay [2] (peptide 100 μM) was 0 throughout. Moreover, the “Plate antimicrobial activity test Fusarium oxysporum (level)” value in the assay with Fusarium oxysporum is listed as 0. For the same substance, the “Plate antimicrobial activity test Pyricularia oryzae (level)” value in the assay on Pyricularia oryzae (peptide 1 μM), with Pyricularia oryzae (peptide 10 μM) and in the assay with Pyricularia oryzae (peptide 100 μM) was 0 throughout.

Consider “FWRIW (listed as Solanum lycopersicum) [TsORF18-2-5aa-14]”, for which the “Plate antimicrobial activity test Collectotrichum orbiculare (level)” value in assay [1] (peptide 1 μM), in assay [1] (peptide 10 μM) and in assay [1] (peptide 100 μM) was 0 in each case. Also, the “Plate antimicrobial activity test Botrytis cinerea (level)” value in the assay on Botrytis cinerea (peptide 1 μM), with Botrytis cinerea (peptide 10 μM) and in the assay on Botrytis cinerea (peptide 100 μM) was 0 throughout. In addition, the “Plate antimicrobial activity test Colletotrichum destructivum (level)” value in assay [2] (peptide 1 μM), in assay [2] (peptide 10 μM) and in assay [2] (peptide 100 μM) was 0 in each case. Further, in the assay on Fusarium oxysporum, the “Plate antimicrobial activity test Fusarium oxysporum (level)” value worked out at 0. The “Plate antimicrobial activity test Pyricularia oryzae (level)” value with Pyricularia oryzae (peptide 1 μM), in the assay with Pyricularia oryzae (peptide 10 μM) and with Pyricularia oryzae (peptide 100 μM) was 0 each time.

For the substance “FSERT (listed as Solanum lycopersicum) [TsORF18-2-5aa-7]”, the “Plate antimicrobial activity test Collectotrichum orbiculare (level)” value in assay [1] (peptide 1 μM), in assay [1] (peptide 10 μM) and in assay [1] (peptide 100 μM) was 0 in each case. Also, the “Plate antimicrobial activity test Botrytis cinerea (level)” value in the assay with Botrytis cinerea (peptide 1 μM), in the assay with Botrytis cinerea (peptide 10 μM) and in the assay on Botrytis cinerea (peptide 100 μM) was 0 each time. Further, the “Plate antimicrobial activity test Colletotrichum destructivum (level)” value in assay [2] (peptide 1 μM), in assay [2] (peptide 10 μM) and in assay [2] (peptide 100 μM) was 0 each time. The “Plate antimicrobial activity test Fusarium oxysporum (level)” value in the assay on Fusarium oxysporum was determined as 0. Also, the “Plate antimicrobial activity test Pyricularia oryzae (level)” value in the assay on Pyricularia oryzae (peptide 1 μM), with Pyricularia oryzae (peptide 10 μM) and in the assay on Pyricularia oryzae (peptide 100 μM) was 0 throughout.

These data come from patent US11952584B2, “Functional peptides having antimicrobial activity against phytopathogenic microorganisms” (TOYOTA JIDOSHA KABUSHIKI KAISHA, priority 2019, dated 2024).
